Data as given in ChEMBL document CHEMBL1151349, “The antineoplastic quassinoids of Simaba cuspidata spruce and Ailanthus grandis Prain” (1980).
The source made the active and inactive calls. The calls are words filed in the database; no cut-off is given here.

Tests used:
[1] = system: P388; test: Antineoplastic activity against mouse P388 cells; assay type: functional
[2] = system: P388; test: In vivo antineoplastic activity against mouse P388 cells upto 2.0 mg/kg; assay type: functional, organism-based; set-up: dose 2 mg/kg
[3] = system: P388; test: In vivo antineoplastic activity against mouse P388 cells assessed as increase in survival time at 0.08 to 0.60 mg/kg; assay type: functional; settings: dose mg/kg 0.08-0.60

SMILES	GI [1]	Activity [2]	Activity [1]	Activity [3]
C/C=C(/C)C(=O)O[C@@H]1[C@H]2C(C)=C[C@H](O)[C@@H](O)[C@]2(C)[C@H]2[C@@]3(O)OC[C@@]24[C@@H]1OC(=O)C[C@H]4[C@@H](C)[C@H]3O	0.24 µg/mL	inactive		
CC[C@@](C)(OC(C)=O)C(=O)O[C@H]1C(=O)O[C@@H]2C[C@H]3C(C)=C[C@H](O)[C@@H](O)[C@]3(C)[C@H]3[C@@]4(O)OC[C@]32[C@@H]1[C@@H](C)[C@H]4O			inactive	
C/C=C(/C)C(=O)O[C@@H]1[C@H]2C(C)=CC(=O)[C@@H](O)[C@]2(C)[C@H]2[C@@]3(O)OC[C@@]24[C@@H]1OC(=O)C[C@H]4[C@@H](C)[C@H]3O	<0.01 µg/mL			34%
